Assay results: PubChem BioAssay AID248 (DTP/NCI, 2004)
Where “and” joins values, the source holds several entries; their conditions need not be identical. Identical values can stand only once. Toxic doses and inconclusive results are not listed. Cut-off read from the data, not from the text of the source: active = T/C of 150% or more; inactive = T/C below 125%.

System: L1210 leukemia ip in BDF1 mice, survival T/C
Assay: NCI In Vivo Anticancer Drug Screen. Data for tumor model L1210 Leukemia (intraperitoneal) in B6D2F1 (BDF1) mice
Conditions: endpoint: mean survival time, higher = longer survival
Procedure, shortened: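 Read-out is survival time, reported as the treated-group measurement over the vehicle-control measurement.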

[1] = dose: 100.0 mg/kg/injection, schedule: Q01DX001 (ip), vehicle: carboxymethylcellulose (CMC)
[2] = dose: 200.0 mg/kg/injection, schedule: Q01DX001 (ip), vehicle: carboxymethylcellulose (CMC)
[3] = dose: 400.0 mg/kg/injection, schedule: Q01DX001 (ip), vehicle: carboxymethylcellulose (CMC)
[4] = dose: 100.0 mg/kg/injection, schedule: Q01DX001 (ip), vehicle: saline
[5] = dose: 200.0 mg/kg/injection, schedule: Q01DX001 (ip), vehicle: saline
[6] = dose: 400.0 mg/kg/injection, schedule: Q01DX001 (ip), vehicle: saline
[7] = dose: 25.0 mg/kg/injection, schedule: Q01DX009 (ip), vehicle: saline with Tween-80
[8] = dose: 50.0 mg/kg/injection, schedule: Q01DX009 (ip), vehicle: saline with Tween-80
[9] = dose: 100.0 mg/kg/injection, schedule: Q01DX009 (ip), vehicle: saline with Tween-80
[10] = dose: 100.0 mg/kg/injection, schedule: Q04DX003 (sc), vehicle: olive oil, sesame oil, peanut oil
[11] = dose: 200.0 mg/kg/injection, schedule: Q04DX003 (sc), vehicle: olive oil, sesame oil, peanut oil
[12] = dose: 400.0 mg/kg/injection, schedule: Q04DX003 (sc), vehicle: olive oil, sesame oil, peanut oil

Measured: T/C

C[n+]1ccc2cc(N)c3c4ccccc4sc3c2c1
inactive: dose: 1.56 mg/kg/injection, schedule: Q01DX009 (ip), vehicle: saline with Tween-80 110 % of control | dose: 3.12 mg/kg/injection, schedule: Q01DX009 (ip), vehicle: saline with Tween-80 100 % of control | dose: 6.25 mg/kg/injection, schedule: Q01DX009 (ip), vehicle: saline with Tween-80 105 % of control | dose: 12.5 mg/kg/injection, schedule: Q04DX003 (ip), vehicle: saline with Tween-80 105 % of control | dose: 25.0 mg/kg/injection, schedule: Q04DX003 (ip), vehicle: saline with Tween-80 105 % of control | dose: 50.0 mg/kg/injection, schedule: Q04DX003 (ip), vehicle: saline with Tween-80 115 % of control

CCCCCOc1ccc(C2=C(c3ccccc3)C(=O)C(c3ccccc3)=C2c2ccccc2)cc1
inactive: [1] 100 % of control | [2] 100 % of control | [3] 94 % of control

CC(=O)OC1(C)CC(C)C(O)C(C(O)CC2CC(=O)NC(=O)C2)C1 (stereo not given)
inactive: dose: 5.0 mg/kg/injection, schedule: Q01DX001 (ip), vehicle: water 98 % of control | dose: 10.0 mg/kg/injection, schedule: Q01DX001 (ip), vehicle: water 107 % of control | dose: 20.0 mg/kg/injection, schedule: Q01DX001 (ip), vehicle: water 112 % of control

[BH3-][NH2+]c1cccc([NH2+][BH3-])c1
inactive: [4] 100 % of control | [5] 96 % of control | [6] 94 % of control

Cc1ccc(-n2c(=S)[nH]c3ccccc3c2=O)cc1
inactive: [7] 92 % of control | [8] 90 % of control | [9] 87 % of control

COc1ccc(Cc2ccc3c(C)cc(Cl)nc3c2)cc1
inactive: [4] 98 % of control | [5] 103 % of control | [6] 108 % of control

COC(=O)C1OC(n2cnc3c(N)ncnc32)C(OC(C)=O)C(OC(C)=O)C1OC(C)=O (stereo not given)
inactive: dose: 50.0 mg/kg/injection, schedule: Q01DX001 (ip), vehicle: carboxymethylcellulose (CMC) 100 % of control | [1] 92 % of control | [2] 100 % of control | [3] 92 % of control

CCN(CC)CCn1c2ccncc2c2cnccc21
inactive: dose: 25.0 mg/kg/injection, schedule: Q04DX003 (ip), vehicle: saline 96 % of control | dose: 50.0 mg/kg/injection, schedule: Q04DX003 (ip), vehicle: saline 101 % of control | dose: 100.0 mg/kg/injection, schedule: Q04DX003 (ip), vehicle: saline 103 % of control

[CeH3]
inactive: [10] 98 % of control | [11] 108 % of control | [12] 91 % of control

CN(CCc1ccccc1)C(N)=S
inactive: dose: 75.0 mg/kg/injection, schedule: Q01DX001 (ip), vehicle: acetone 96 % of control

CC(C)(C)C(=O)CC(=O)C(C)(C)C.CC(C)(C)C(=O)CC(=O)C(C)(C)C.CC(C)(C)C(=O)CC(=O)C(C)(C)C.[Pr]
inactive: dose: 100.0 mg/kg/injection, schedule: Q01DX001 (ip), vehicle: saline with Tween-80 100 % of control | [9] 98 % of control | dose: 200.0 mg/kg/injection, schedule: Q01DX001 (ip), vehicle: saline with Tween-80 97 % of control | dose: 200.0 mg/kg/injection, schedule: Q01DX009 (ip), vehicle: saline with Tween-80 88 % of control | dose: 400.0 mg/kg/injection, schedule: Q01DX001 (ip), vehicle: saline with Tween-80 89 % of control

CSc1nn(C)c2cc(C)c3ccccc3[n+]12
inactive: dose: 5.0 mg/kg/injection, schedule: Q01DX001 (ip), vehicle: saline 108 % of control | dose: 10.0 mg/kg/injection, schedule: Q01DX001 (ip), vehicle: saline 106 % of control | dose: 20.0 mg/kg/injection, schedule: Q01DX001 (ip), vehicle: saline 103 % of control | dose: 40.0 mg/kg/injection, schedule: Q01DX001 (ip), vehicle: saline 100 % of control

COc1ccc(NC(=O)Nc2ccc(Cl)cc2C)cc1
inactive: dose: 100.0 mg/kg/injection, schedule: Q01DX009 (sc), vehicle: olive oil, sesame oil, peanut oil 100 % of control | [10] 101 % of control | dose: 200.0 mg/kg/injection, schedule: Q01DX009 (sc), vehicle: olive oil, sesame oil, peanut oil 102 % of control | [11] 100 % of control | dose: 400.0 mg/kg/injection, schedule: Q01DX009 (sc), vehicle: olive oil, sesame oil, peanut oil 96 % of control | [12] 98 % of control

O=C(COc1ccccc1)CC(O)(C(F)(F)F)C(F)(F)F
inactive: dose: 100.0 mg/kg/injection, schedule: Q04DX003 (ip), vehicle: saline with Tween-80 97 % of control | dose: 200.0 mg/kg/injection, schedule: Q04DX003 (ip), vehicle: saline with Tween-80 92 % of control

Cc1ccc2cc(O)ccc2c1
inactive: [4] 91 % of control | dose: 100.0 mg/kg/injection, schedule: Q04DX003 (ip), vehicle: acetone 90 % of control | [5] 96 % of control | dose: 200.0 mg/kg/injection, schedule: Q04DX003 (ip), vehicle: acetone 90 % of control | [6] 92 % of control

CP(=O)(CCP(=O)(c1ccccc1)c1ccccc1)c1ccccc1 (stereo not given)
inactive: dose: 25.0 mg/kg/injection, schedule: Q04DX002 (ip), vehicle: saline with Tween-80 94 % of control | dose: 50.0 mg/kg/injection, schedule: Q04DX002 (ip), vehicle: saline with Tween-80 106 % of control | dose: 100.0 mg/kg/injection, schedule: Q04DX002 (ip), vehicle: saline with Tween-80 97 % of control

CC(C)CC(C)(CC(C)C)C(=O)O
inactive: [4] 100 % of control | [5] 100 % of control | [6] 102 % of control

C=C(CC(N)=O)C(=O)O (tested in a mixture with another compound)
inactive: dose: 6.25 mg/kg/injection, schedule: Q01DX009 (ip), vehicle: saline 97 % of control | dose: 12.5 mg/kg/injection, schedule: Q01DX009 (ip), vehicle: saline 100 % of control | dose: 20.0 mg/kg/injection, schedule: Q01DX009 (ip), vehicle: saline 105 % of control | dose: 25.0 mg/kg/injection, schedule: Q01DX009 (ip), vehicle: saline 105 % of control | dose: 35.0 mg/kg/injection, schedule: Q01DX009 (ip), vehicle: saline 94 % of control | dose: 50.0 mg/kg/injection, schedule: Q01DX001 (ip), vehicle: saline 107 % of control | dose: 50.0 mg/kg/injection, schedule: Q01DX009 (ip), vehicle: saline 106 % of control | dose: 65.0 mg/kg/injection, schedule: Q01DX009 (ip), vehicle: saline 102 % of control | [4] 118 % of control | dose: 100.0 mg/kg/injection, schedule: Q01DX009 (ip), vehicle: saline 111 % of control | dose: 125.0 mg/kg/injection, schedule: Q01DX009 (ip), vehicle: saline 119 % of control | dose: 177.0 mg/kg/injection, schedule: Q01DX001 (ip), vehicle: saline 110 % of control | [5] 107 % of control | dose: 200.0 mg/kg/injection, schedule: Q01DX009 (ip), vehicle: saline 111 % of control | dose: 266.0 mg/kg/injection, schedule: Q01DX001 (ip), vehicle: saline 124 % of control | dose: 270.0 mg/kg/injection, schedule: Q01DX001 (ip), vehicle: saline 110 % of control | dose: 270.0 mg/kg/injection, schedule: Q01DX009 (ip), vehicle: saline 120 % of control and 123 % of control | [6] 111 % of control | dose: 400.0 mg/kg/injection, schedule: Q01DX009 (ip), vehicle: saline 101 % of control and 111 % of control and 117 % of control | dose: 600.0 mg/kg/injection, schedule: Q01DX001 (ip), vehicle: saline 114 % of control | dose: 600.0 mg/kg/injection, schedule: Q01DX009 (ip), vehicle: saline 113 % of control | dose: 800.0 mg/kg/injection, schedule: Q01DX001 (ip), vehicle: saline 122 % of control | dose: 1000.0 mg/kg/injection, schedule: Q01DX001 (ip), vehicle: saline 113 % of control

CC(C)CCNc1ccc(NCCC(C)C)cc1
inactive: dose: 12.5 mg/kg/injection, schedule: Q01DX009 (ip), vehicle: saline with Tween-80 100 % of control | dose: 12.5 mg/kg/injection, schedule: Q04DX003 (ip), vehicle: Klucel (hydroxypropylcellulose) (HPC) 104 % of control | [7] 100 % of control | dose: 25.0 mg/kg/injection, schedule: Q04DX003 (ip), vehicle: Klucel (hydroxypropylcellulose) (HPC) 96 % of control | [8] 96 % of control | dose: 50.0 mg/kg/injection, schedule: Q04DX003 (ip), vehicle: Klucel (hydroxypropylcellulose) (HPC) 96 % of control | dose: 75.0 mg/kg/injection, schedule: Q01DX009 (ip), vehicle: alcohol 86 % of control
